Drawing on patent publication US10266548B2, “Substituted benzylindazoles for use as Bub1 kinase inhibitors in the treatment of hyperproliferative diseases” (Bayer Intellectual Property GmbH, priority 2011, dated 2019), this text covers IC50 for twelve compounds.

The structures appear in SMILES notation. Where two headings read alike, the source gives them in different places. A value given as a limit tells only on which side of the number the result lay.

The target in experiment [1] is catalytic domain of human Bub1 (amino acids 704-1085) (Homo sapiens (Human), UniProt O43683). In words: Bub1 kinase assay (TR-FRET). In kind it is biochemical. Conditions: 10 μM ATP, 1 μM peptide substrate; read-out: Biological Assay 1: Bub1 kinase assay median IC50. In a few lines: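 Phosphoserine product detected by TR-FRET (Eu-labeled anti-mouse IgG/anti-phosphoserine antibody to streptavidin-XL665) after 1 h at 22 °C. IC50 from 4-parameter logistic fit.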
Sequence of catalytic domain of human Bub1 (amino acids 704-1085) (O43683 704-1085): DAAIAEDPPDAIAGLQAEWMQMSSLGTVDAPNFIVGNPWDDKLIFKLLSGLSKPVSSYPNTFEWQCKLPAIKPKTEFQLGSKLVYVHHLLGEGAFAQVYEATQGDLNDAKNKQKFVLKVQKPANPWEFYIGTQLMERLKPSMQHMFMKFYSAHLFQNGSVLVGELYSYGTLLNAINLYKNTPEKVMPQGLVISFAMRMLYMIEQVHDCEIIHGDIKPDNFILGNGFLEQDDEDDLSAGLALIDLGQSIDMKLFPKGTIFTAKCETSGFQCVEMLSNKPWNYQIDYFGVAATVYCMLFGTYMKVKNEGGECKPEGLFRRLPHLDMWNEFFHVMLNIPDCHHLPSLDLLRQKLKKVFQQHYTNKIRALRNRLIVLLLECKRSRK

For experiment [2], the system named is HeLa cells. Put plainly: Proliferation assay (HeLa cell line). In kind it is cell-based. Conditions: read-out: Biological Assay 2: Proliferation assay (HeLa cell line) median IC50. How it is done:
Cultivated tumor cells (cells were ordered from ATCC, except HeLa-MaTu and HeLa-MaTu-ADR, which were ordered from EPO-GmbH, Berlin) were plated at a density of 1000 to 5000 cells/well, depending on the growth rate of the respective cell line, in a 96-well multititer plate in 200 μL of their respective growth medium supplemented 10% fetal calf serum. After 24 hours, the cells of one plate (zero-point plate) were stained with crystal violet (see below), while the medium of the other plates was replaced by fresh culture medium (200 μl), to which the test substances were added in various concentrations (0 μM, as well as in the range of 0.001-10 μM; the final concentration of the solvent dimethyl sulfoxide was 0.5%). The cells were incubated for 4 days in the presence of test substances. Cell proliferation was determined by staining the cells with crystal violet: the cells were fixed by adding 20 μl/measuring point of an 11% glutaric aldehyde solution for 15 minutes at room temperature. After three washing cycles of the fixed cells with water, the plates were dried at room temperature. The cells were stained by adding 100 μl/measuring point of a 0.1% crystal violet solution (pH 3.0). After three washing cycles of the stained cells with water, the plates were dried at room temperature. The dye was dissolved by adding 100 μl/measuring point of a 10% acetic acid solution. […] The change of cell number, in percent, was calculated by normalization of the measured values to the aborbtion values of the zero-point plate (=0%) and the absorbtion of the untreated (0 μm) cells (=100%). The IC50 values were determined by means of a 4 parameter fit using the company's own software.

The mark [3] stands for this setting: Homo sapiens, 96 h, 4 days, crystal violet.

With `COc1cnc(-c2nn(Cc3ccc(S(=O)(=O)NC4CC4)cc3)c3ccccc23)nc1Nc1ccncc1` [Example 2-37-1, N-cyclopropyl-4-({3-[5-methoxy-4-(pyridin-4-ylamino)pyrimidin-2-yl]-1H-indazol-1-yl}methyl)benzenesulfonamide], the IC50 in experiment [1] was 71 nM; in experiment [2] (setting [3]), not below 10000 nM.
The matching figures for `COc1cnc(-c2nn(Cc3ccc4c(c3)OC(=O)C4)c3ccccc23)nc1Nc1ccncc1` [Example 2-38-1, 6-({3-[5-methoxy-4-(pyridin-4-ylamino)pyrimidin-2-yl]-1H-indazol-1-yl}methyl)-1-benzofuran-2(3H)-one]: 76 nM and not below 10000 nM.
For the compound `COc1cnc(-c2nn(Cc3c(F)cc(OC(F)F)cc3F)c3ccccc23)nc1Nc1ccncc1` [Example 2-39-1, 2-{1-[4-(difluoromethoxy)-2,6-difluorobenzyl]-1H-indazol-3-yl}-5-methoxy-N-(pyridin-4-yl)pyrimidin-4-amine], the IC50 was found to be 5.6 nM in experiment [1] and 3600 nM in experiment [2] (Homo sapiens, 96 h).
Take `COc1cnc(-c2nn(Cc3ccc(C(=O)OC(C)(C)C)cc3Cl)c3ccccc23)nc1Nc1ccncc1` [Example 2-40-1, tert-butyl 3-chloro-4-({3-[5-methoxy-4-(pyridin-4-ylamino)pyrimidin-2-yl]-1H-indazol-1-yl}methyl)benzoate]: the IC50 in experiment [1] amounted to 120 nM; in experiment [2] (setting [3]) it was 5600 nM.
In the case of `CCOC(=O)C(C)(C)c1cccc(Cn2nc(-c3ncc(OC)c(Nc4ccncc4)n3)c3ccccc32)c1` [Example 2-41-1, ethyl 2-[3-({3-[5-methoxy-4-(pyridin-4-ylamino)pyrimidin-2-yl]-1H-indazol-1-yl}methyl)phenyl]-2-methylpropanoate], the IC50 was determined as 150 nM in experiment [1] and 7900 nM in experiment [2] (Homo sapiens, 96 h).
Consider `COc1cnc(-c2nn(Cc3ccc(C#N)cc3)c3ccccc23)nc1Nc1ccncc1` [Example 2-42-1, 4-({3-[5-methoxy-4-(pyridin-4-ylamino)pyrimidin-2-yl]-1H-indazol-1-yl}methyl)benzonitrile], for which the IC50 in experiment [1] was 190 nM; in experiment [2] (setting [3]), not below 10000 nM.
The matching figures for `COc1cnc(-c2nn(Cc3ccc(S(=O)(=O)N4CCOCC4)cc3)c3ccccc23)nc1Nc1ccncc1` [Example 2-43-1, 5-methoxy-2-{1-[4-(morpholin-4-ylsulfonyl)benzyl]-1H-indazol-3-yl}-N-(pyridin-4-yl)pyrimidin-4-amine]: 1200 nM and not below 10000 nM.
As for `COc1cnc(-c2nn(Cc3c(F)ccc(C)c3F)c3ccccc23)nc1Nc1ccncc1` [Example 2-48-1, 2-[1-(2,6-difluoro-3-methylbenzyl)-1H-indazol-3-yl]-5-methoxy-N-(pyridin-4-yl)pyrimidin-4-amine], the IC50 was 5.5 nM in experiment [1] and not below 10000 nM in experiment [2] (Homo sapiens, 96 h).
With `COc1cnc(-c2nn(Cc3c(F)cc(C(N)=O)cc3F)c3ccccc23)nc1Nc1ccncc1` [Example 2-50-1, 3,5-difluoro-4-({3-[5-methoxy-4-(pyridin-4-ylamino)pyrimidin-2-yl]-1H-indazol-1-yl}methyl)benzamide], the IC50 in experiment [1] is 11 nM; in experiment [2] (Homo sapiens, 96 h), not below 10000 nM.
For `COc1cnc(-c2nn(Cc3c(F)cc(OCCOC(C)=O)cc3F)c3ccccc23)nc1Nc1ccncc1` [Example 2-51-1, 2-[3,5-difluoro-4-({3-[5-methoxy-4-(pyridin-4-ylamino)pyrimidin-2-yl]-1H-indazol-1-yl}methyl)phenoxy]ethyl acetate], the IC50 in experiment [1] was determined as 10 nM; in experiment [2] (Homo sapiens, 96 h), 2700 nM.
Consider `CCCOc1cc(F)c(Cn2nc(-c3ncc(OC)c(Nc4ccncc4)n3)c3ccccc32)c(F)c1` [Example 2-52-1, 2-[1-(2,6-difluoro-4-propoxybenzyl)-1H-indazol-3-yl]-5-methoxy-N-(pyridin-4-yl)pyrimidin-4-amine], for which the IC50 in experiment [1] stood at 11 nM; in experiment [2] (Homo sapiens, 96 h) it was 2100 nM.
Turning to `CCOc1cc(F)c(Cn2nc(-c3ncc(OC)c(Nc4ccncc4)n3)c3ccccc32)c(OC)c1` [Example 2-53-1], the IC50 in experiment [1] came to 83 nM; in experiment [2] (4 days, crystal violet) it was 3400 nM.
